These results are taken from US20050186230A1, “Elemene compositions containing liquid oil” (SD Pharmaceuticals, Inc., priority 2004, published 2005).

Read-outs that look alike come from different tables or passages of the source.

Data set [1] has as its system murine Ehrlich ascites carcinoma. The following applies: cited from earlier work.
Data set [2] relates to rat ascitic reticulum cell sarcoma. The following applies: material contained beta-elemene 65%; cited from earlier work.
Data set [3] has as its system K562 leukemia cells. As to conditions: cited from earlier work.
The nature of data set [4]: Solubility of elemenes in water. It is filed as physicochemical. As to conditions: found by the inventor.
Data set [5] relates to cerebral carcinoma. The following applies: combination of the elemene and local chemotherapy; cited from earlier work.
Data set [6] has as its system promyelocytic leukemia HL 60 cells. The following applies: cited from earlier work.
In data set [7] the test system is erythroleukemia K562 cells. As to conditions: cited from earlier work.
The subject of data set [8] is peripheral blood leukocytes (PBL). As to conditions: cited from earlier work.
For data set [9], the system named is human leukemia K562 cells. The following applies: cited from earlier work.
For data set [10] the following is noted: background statement; cited from earlier work.
For data set [11], the system named is brain tumors (neuroglioma), liver and esophageal cancers. As to conditions: 2 year clinical trial in China; cited from earlier work.

As for `C=CC1(C)CCC(C(=C)C)CC1C(=C)C` (stereo not drawn) [beta-elemene, 1-methyl-1-vinyl-2,4-diisoprotenyl-cyclohexane], the anti-tumor activity entry is reported as “marked anti-tumor activity” in [1] (murine Ehrlich ascites carcinoma, material contained beta-elemene 65%) and “marked anti-tumor activity” in data set [2]. In addition, the “side effects during treatment” value in data set [1] (murine and rat tumor models) is “Diarrhea and weight loss”. The “apoptosis of K562 leukemia cells” value in [3] was “induces apoptosis”.

Turning to elemene, the solubility in water entry in data set [4] is recorded as “some solubility in water”; in data set [10], “insoluble in water”. The “patients reaching complete remission level” value in data set [5] is given as 27%. Besides, the “in vitro IC50” value was 27.5 mg/L in [6], 81 mg/L in data set [7] and 254.3 mg/L in data set [8]. In data set [9], the “apoptosis of K562 cells” value is “induces apoptosis”. Besides, the “bcl-2 protein expression in K562 cells” value in [9] is given as “down-regulation of bcl-2 protein”. Further, the clinical effect result in [11] is “beneficial effects on brain tumors (neuroglioma), liver and esophageal cancers”.
